Measured values from patent publication US20100324086A1, “COMPOUNDS AND METHODS” (Novasaid AB, priority 2008, published 2010).

Columns and labels:
[1] = molecular target: T1, recombinant, membrane-bound mPGES-1 (Homo sapiens, UniProt O14684); experiment: Thiobarbituric acid assay (TBA-MDA assay), inhibition of mPGES-1; format: biochemical; settings: remaining PGH2 measured at 535 nm
T1 sequence (O14684 1-152): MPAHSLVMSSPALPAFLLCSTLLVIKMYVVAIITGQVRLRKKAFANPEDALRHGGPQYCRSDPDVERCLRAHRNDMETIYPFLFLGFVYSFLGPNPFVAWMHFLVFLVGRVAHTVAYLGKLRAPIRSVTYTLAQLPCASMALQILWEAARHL
Excerpt: Malondialdehyde is a product of lipid peroxidation and reacts with thiobarbituric acid forming a red product that absorbs at 535 nm (W. G. Niehaus, Jr and B. Samuelsson, Eur. J. Biochem 6, 126 (1968). The extinction coefficient of the TBA-MDA conjugate is 1.56×10^5 M^−1 cm^−1 (E. D. Wills. Biochem. J. 113, 315 (1969).
The method used for detection of inhibition of mPGES-1 is based on the detection of the amount of remaining PGH2. This method was described more than 20 years ago by Basevich et al (Bioorg. Khim. 1983, 9(5), 658-665.
The assay used was a modified variant and used citric acid instead of the TCA-TBA-HCl reagent described in the original assay. In this assay recombinant, membrane-bound mPGES-1 was incubated with PGH2. The reaction was stopped by adding citric acid with a final pH of 3 and a large excess of FeCl2 (20 mM) to convert any remaining PGH2 into MDA and […]. TBA reagent was finally added (0.67%) and the samples were heated at 80° C. for 30 min. The absorbance of the conjugate was measured at 535 nm.
The product of mPGES-1 (PGE2) was not measured directly in this assay, but rather the remaining substrate (PGH2) indirectly by adding FeCl2 that converts PGH2 into […] and 12-HHT. As a positive control a known mPGES-1 inhibitor, MK-886, was used and the new inhibitors were compared with the inhibition of MK-886 (% of MK-886 inhibition).

[2] = tested on: A549 lung carcinoma cells; experiment: A549 assay, PGE2 content in supernatant by EIA; format: cell-based; settings: TNFalfa and IL-1beta induced 16 h, 30 min compound, then 10 μM arachidonic acid 30 min
Protocol: A549 lung carcinoma cells, seeded at a density of 10,000 cells/well, were grown in 96 well tissue culture plates. TNFalfa (5 ng/ml) and […] (5 ng/ml) were added and the cells were incubated for 16 hours. Cells were washed in PBS and test compounds at the appropriate concentration in HBSS/0.1% BSA were added. After 30 minutes incubation with test compounds, 10 μM arachidonic acid was added and cells were further incubated for 30 minutes. Supernatant was collected and analyzed for PGE2 content by EIA according to manufacturer's instructions.

IC50 [1] [nM]	EC50 ([2]; Homo sapiens, A549) [nM]	EC50 [2] [nM]	SMILES
260	1480		O=C(NCc1cccc2ccccc12)c1cccc(NC(=O)c2ccccc2Cl)c1 [Compound 117, 2-Chloro-N-{3-[(naphthalen-1-ylmethyl)-carbamoyl]-phenyl}-benzamide]
120	450		C[C@@H](NC(=O)c1cccc(NC(=O)c2ccccc2C(F)(F)F)c1)c1cccc2ccccc12 [Compound 93, N-[3-((R)-1-Naphthalen-1-yl-ethylcarbamoyl)-phenyl]-2-trifluoromethyl-benzamide]
49	500		O=C(Nc1ccc(C(F)(F)F)cn1)c1cccc(NC(=O)c2ccccc2C(F)(F)F)c1 [Compound 153, 3-[2-(Trifluoromethyl)-benzoylamino]-N-(5-trifluoromethyl-pyridine-2-yl)-benzamide]
1100	640		O=C(NCc1cccc2ccccc12)c1cccc(NC(=O)c2ccccc2F)c1 [Compound 104, 2-Fluoro-N-{3-[(naphthalen-1-ylmethyl)-carbamoyl]-phenyl}-benzamide]
65			O=C(NCc1ccccc1Br)c1cccc(NC(=O)c2ccccc2C(F)(F)F)c1 [Compound 135, N-(2-Bromo-benzyl)-3-(2-trifluoromethyl-benzoylamino)-benzamide]
320			O=C(NCc1cccc(-c2ccccc2)c1)c1cccc(NC(=O)c2ccccc2C(F)(F)F)c1 [Compound 137, N-(3-Phenyl-benzyl)-3-(2-trifluoromethyl-benzoylamino)-benzamide]
68			O=C(Nc1nc2cc(Cl)ccc2o1)c1cccc(NC(=O)c2ccccc2C(F)(F)F)c1 [Compound 164, N-(3-(5-chlorobenzo[d]oxazol-2-ylcarbamoyl)phenyl)-2-(trifluoromethyl)benzamide]
520			O=C(NCc1cccc2ccccc12)c1cccc(NC(=O)c2c(Cl)cccc2Cl)c1 [Compound 105, 2,6-Dichloro-N-{3-[(naphthalen-1-ylmethyl)-carbamoyl]-phenyl}-benzamide]
290	400		C[C@H](NC(=O)c1cccc(NC(=O)c2ccccc2C(F)(F)F)c1)c1cccc2ccccc12 [Compound 77, N-[3-((S)-1-Naphthalen-1-yl-ethylcarbamoyl)-phenyl]-2-trifluoromethyl-benzamide]
370			C[C@H](NC(=O)c1cccc(NC(=O)c2ccccc2Cl)c1)c1cccc2ccccc12 [Compound 85, 2-Chloro-N-[3-((S)-1-naphthalen-1-yl-ethylcarbamoyl)-phenyl]-benzamide]
2300			C[C@@H](NC(=O)c1cccc(NC(=O)c2ccccc2F)c1)c1cccc2ccccc12 [Compound 88, 2-Fluoro-N-[3-((R)-1-naphthalen-1-yl-ethylcarbamoyl)-phenyl]-benzamide]
70			O=C(NCc1ccccc1C(F)(F)F)c1cccc(NC(=O)c2ccccc2C(F)(F)F)c1 [Compound 134, 3-(2-Trifluoromethyl-benzoylamino)-N-(2-trifluoromethyl-benzyl)-benzamide]
2000			O=C(NCc1ccccc1N1CCOCC1)c1cccc(NC(=O)c2ccccc2C(F)(F)F)c1 [Compound 149, N-(2-morpholin-4-yl-benzyl)-3-(2-trifluoromethyl-benzoylamino)-benzamide]
75			Cc1cccc(CNC(=O)c2cccc(NC(=O)c3ccccc3C(F)(F)F)c2)c1C [Compound 139, N-(2,3-Dimethyl-benzyl)-3-(2-trifluoromethyl-benzoylamino)-benzamide]
220			O=C(NCc1ccccc1Cl)c1cccc(NC(=O)c2ccccc2C(F)(F)F)c1 [Compound 143, N-(2-Chloro-benzyl)-3-(2-trifluoromethyl-benzoylamino)-benzamide]
53			O=C(Nc1ccc(-c2ccccc2)cn1)c1cccc(NCc2ccccc2C(F)(F)F)c1 [Compound 166, 3-[2-(Trifluoromethyl)-benzylamino]-N-(5-phenyl-pyridine-2-yl)-benzamide]
1800			C[C@H](NC(=O)c1cccc(NC(=O)c2ccccc2F)c1)c1cccc2ccccc12 [Compound 73, 2-Fluoro-N-[3-((S)-1-naphthalen-1-yl-ethylcarbamoyl)-phenyl]-benzamide]
2500			O=C(NCc1cccc2ccccc12)c1cccc(NC(=O)c2ccccc2-c2cccs2)c1 [Compound 116, N-{3-[(Naphthalen-1-ylmethyl)-carbamoyl]-phenyl}-2-thiopene-2-yl-benzamide]
160			O=C(NCc1cccc(Br)c1)c1cccc(NC(=O)c2ccccc2C(F)(F)F)c1 [Compound 138, N-(3-Bromo-benzyl)-3-(2-trifluoromethyl-benzoylamino)-benzamide]
1000			O=C(NCc1cccc2ccccc12)c1cccc(NCc2ccccc2Br)c1 [Compound 122, 3-(2-Bromo-benzylamino)-N-naphthalen-1-ylmethyl-benzamide]

Further lines, the compound ahead of its results:

SMILES	IC50 [1] [nM]	EC50 ([2]; Homo sapiens, A549) [nM]	EC50 [2] [nM]
O=C(NC1CCc2ccccc21)c1cccc(NC(=O)c2ccccc2Cl)c1 (centres unmarked) [Compound 34, 3-(2-Chloro-benzoylamino)-N-indan-1-yl-benzamide]	720	5400	
O=C(Nc1cccc2cccnc12)c1cccc(NC(=O)c2ccccc2Cl)c1 [Compound 8, 3-(2-Chloro-benzoylamino)-N-(quinolin-8-yl-)-benzamide]	800		2960
O=C(Nc1ccc2ncsc2c1)c1cccc(NC(=O)c2ccccc2Cl)c1 [Compound 14, 3-(2-Chloro-benzoylamino)-N-(benzothiazol-6-yl)-benzamide]	900		
CC(=O)Oc1ccccc1C(=O)Nc1cccc(C(=O)NC2CCCCCC2)c1 [Compound 66, Acetic acid 2-(3-cycloheptylcarbamoyl-phenylcarbamoyl)-phenyl ester]	9900		
O=C(Nc1cccc(C(=O)NC2CCCCCC2)c1)c1cc(C(F)(F)F)cc(C(F)(F)F)c1 [Compound 54, N-(3-Cycloheptylcarbamoyl-phenyl)-3,5-bis-trifluoromethyl-benzamide]	1200		
O=C(NC1CCCCCC1)c1cccc(NC(=O)c2ccccc2F)c1 [Compound 63, N-(3-Cycloheptylcarbamoyl-phenyl)-2-fluorobenzamide]	460		
O=C(Nc1ccc2ccccc2n1)c1cccc(NC(=O)c2c(Cl)cccc2Cl)c1 [Compound 40, 3-(2,6-Chloro-benzoylamino)-N-quinolin-2-yl-benzamide]	800		
O=C(Nc1nc2ccccc2[nH]1)c1cccc(NC(=O)c2ccccc2Cl)c1 [Compound 13, 3-(2-Chloro-benzoylamino)-N-(1H-benzimidazol-2-yl)-benzamide]	1300		
Cc1cc(NC(=O)c2cccc(NC(=O)c3ccccc3Cl)c2)c2ccccc2n1 [Compound 3, 3-(2-Chloro-benzoylamino)-N-(2-methyl-quinolin-4-yl)-benzamide]	1100		
O=C(Nc1ccc2ccccc2n1)c1cccc(NC(=O)c2ccccc2[N+](=O)[O-])c1 [Compound 53, 3-(2-Nitro-benzoylamino)-N-quinolin-2-yl-benzamide]	500		
COc1cccc(OC)c1C(=O)Nc1cccc(C(=O)NC2CCCCCC2)c1 [Compound 65, N-(3-Cycloheptylcarbamoyl-phenyl)-2,6-dimethoxy-benzamide]	6900		
O=C(Nc1ccc2ccccc2n1)c1cccc(NC(=O)c2ccccc2-c2cccs2)c1 [Compound 49, 3-(2-Thiophene-2-yl-benzoylamino)-N-quinolin-2-yl-benzamide]	1200		
C[C@H](NC(=O)c1cccc(NC(=O)c2ccccc2Br)c1)c1cccc2ccccc12 [Compound 72, 2-Bromo-N-[3-((S)-1-naphthalen-1-yl-ethylcarbamoyl)-phenyl]-benzamide]	230		
COc1cccc(OC)c1C(=O)Nc1cccc(C(=O)Nc2ccc3ccccc3n2)c1 [Compound 42, 3-(2,6-Dimethoxy-benzoylamino)-N-quinolin-2-yl-benzamide]	3100		
Cc1ccccc1C(=O)Nc1cccc(C(=O)NC2CCCCCC2)c1 [Compound 57, N-(3-Cycloheptylcarbamoyl-phenyl)-2-methylbenzamide]	390		
O=C(NC1CCCCCC1)c1cccc(NC(=O)c2ccccc2C(F)(F)F)c1 [Compound 56, N-(3-Cycloheptylcarbamoyl-phenyl)-2-trifluoromethylbenzamide]	660		
O=C(Nc1ccc2ccccc2n1)c1cccc(NC(=O)c2ccccc2I)c1 [Compound 46, 3-(2-Iodo-benzoylamino)-N-quinolin-2-yl-benzamide]	290		
